In patent publication US7923450B2, “Modulators for amyloid beta” (Hoffmann-La Roche Inc., priority 2008, dated 2011) one finds EC50 data, which are given here for 30 compounds.

Broadly, the EC50 is the midpoint of the concentration-response curve.

Counter-ions that a name gives are not always drawn.

The experiment has as its system γ-secretase. The experiment in a line: Cellular γ-secretase assay (Aβ42 secretion). The settings on record: inhibition of Aβ42 secretion; human neuroglioma H4 cells overexpressing human APP; 22 hrs incubation; read-out: EC50 in vitro. The experiment is classed as cell-based. How it is done:
Cellular γ-Secretase Assay
Human neuroglioma H4 cells overexpressing human APP were plated at 30,000 cells/well/200 μl in 96-well plates in IMDM media containing 10% FCS, 0.2 mg/l Hygromycin B and incubated for 2 h at 37° C., 5% CO2 prior to adding test compounds.
Compounds for testing were dissolved in 100% Me2SO yielding in a 10 mM stock solution. Typically 12 μl of these solutions were further diluted in 1000 μl of IMDM media (w/o FCS,). Sub sequential 1:1 dilutions gave a ten point dose response curve. 100 μl of each dilution was added to the cells in 96-well plates. Appropriate controls using vehicle only and reference compound were applied to this assay. The final concentration of Me2SO was 0.4%.
After incubation for 22 hrs at 37° C., 5% CO2, 50 μl supernatant was transferred into round-bottom 96-well polypropylene plates for detection of Aβ42. 50 μl assay buffer (50 mM Tris/Cl, pH 7.4, 60 mM NaCl, 0.5% BSA, 1% TWEEN 20) was added to the wells followed by the addition of 100 μl of detection antibody (ruthenylated Aβ42-specific antibody BAP15 0.0625 μg/mL in assay buffer). 50 μl of a premix of capture antibody (biotinylated 6E10 antibody, 1 μg/mL) and Steptavidin-coated magnetic beads (Dynal M-280, 0.125 mg/mL) were preincubated for 1 hr at room temperature before adding the assay plates. Assay plates were incubated on a shaker for 3 hrs at room temperature and finally read in the Bioveris M8 Analyser according to the manufacturer's instructions (Bioveris).
EC50 values for inhibition of Aβ42 secretion were calculated by nonlinear regression fit analysis using XLfit 4.0 software (IDBS).
On to `COc1cc(Nc2nc3c(s2)CCCC3c2ccc(Cl)c(C(F)(F)F)c2)ccc1-n1cnc(C)c1` (stereo not drawn) [Example 16, [4-(4-Chloro-3-trifluoromethyl-phenyl)-4,5,6,7-tetrahydro-benzothiazol-2-yl]-[3-methoxy-4-(4-methyl-imidazol-1-yl)-phenyl]-amine], for which the concentration for a half-maximal effect (EC50) worked out at 90 nM.
`COc1cc(Nc2nc3c(s2)CCCC3c2ccc(C)c(C(F)(F)F)c2)ccc1-n1cnc(C)c1` (stereo not drawn) [Example 9, [3-Methoxy-4-(4-methyl-imidazol-1-yl)-phenyl]-[4-(4-methyl-3-trifluoromethyl-phenyl)-4,5,6,7-tetrahydro-benzothiazol-2-yl]-amine]: the EC50 stood at 100 nM.
As for `CCN1Cc2cnc(Nc3ccc(-n4cnc(C)c4)c(OC)c3)nc2C(c2ccccc2)C1` (stereo not drawn) [Example 44, (6-Ethyl-8-phenyl-5,6,7,8-tetrahydro-pyrido[4,3-d]pyrimidin-2-yl)-[3-methoxy-4-(4-methyl-imidazol-1-yl)-phenyl]-amine], the figure is 320 nM.
As for `COc1cc(Nc2nc3c(s2)CCCC3c2cc(Cl)ccc2Cl)ccc1-n1cnc(C)c1` (stereo not drawn) [Example 26, [4-(2,5-Dichloro-phenyl)-4,5,6,7-tetrahydro-benzothiazol-2-yl]-[3-methoxy-4-(4-methyl-imidazol-1-yl)-phenyl]-amine], the figure is 80 nM; as for `COc1cc(Nc2ncc3c(n2)C(C2CCCCC2)CCC3)ccc1-n1cnc(C)c1` (stereo not drawn) [Example 71, (8-Cyclohexyl-5,6,7,8-tetrahydro-quinazolin-2-yl)-[3-methoxy-4-(4-methyl-imidazol-1-yl)-phenyl]-amine], 470 nM; as for `COc1cc(Nc2nc3c(s2)CCCC3c2ccccc2)ccc1-c1cnco1` (stereo not drawn) [Example 1, (3-Methoxy-4-oxazol-5-yl-phenyl)-(4-phenyl-4,5,6,7-tetrahydro-benzothiazol-2-yl)-amine], 300 nM.
With `COc1cc(Nc2nc3c(s2)CCCC3c2cc(Cl)cc(Cl)c2)ccc1-n1cnc(C)c1` (stereo not drawn) [Example 27, [4-(3,5-Dichloro-phenyl)-4,5,6,7-tetrahydro-benzothiazol-2-yl]-[3-methoxy-4-(4-methyl-imidazol-1-yl)-phenyl]-amine] the figure was 70 nM.
Take `COc1cc(Nc2nc3c(s2)CCCC3c2ccccc2)ccc1-c1cnc(C)s1` (stereo not drawn) [Example 92, [3-Methoxy-4-(2-methyl-thiazol-5-yl)-phenyl]-(4-phenyl-4,5,6,7-tetrahydro-benzothiazol-2-yl)-amine]: the 50% effective concentration (EC50) amounted to 252 nM.
As for `COc1cc(Nc2ncc3c(n2)C(c2ccccc2)CN(C(=O)OC(C)(C)C)C3)ccc1-n1cnc(C)c1` (stereo not drawn) [Example 40, 2-[3-Methoxy-4-(4-methyl-imidazol-1-yl)-phenylamino]-8-phenyl-7,8-dihydro-5H-pyrido[4,3-d]pyrimidine-6-carboxylic acid tert.-butyl ester], the figure is 270 nM.
With `COc1cc(Nc2nc3c(s2)CCCC3c2ccccc2Cl)ccc1-n1cnc(C)c1` (stereo not drawn) [Example 14, [4-(2-Chloro-phenyl)-4,5,6,7-tetrahydro-benzothiazol-2-yl]-[3-methoxy-4-(4-methyl-imidazol-1-yl)-phenyl]-amine] the figure was 70 nM; with `COc1cc(Nc2nc3c(s2)CCCC3c2ccccc2)ccc1-n1cnc(C)c1` (stereo not drawn) [Example 6, [3-Methoxy-4-(4-methyl-imidazol-1-yl)-phenyl]-(4-phenyl-4,5,6,7-tetrahydro-benzothiazol-2-yl)-amine], 40 nM.
As for `COc1cc(Nc2ncc3c(n2)C(c2ccccc2)CN(C(C)C)C3)ccc1-n1cnc(C)c1` (stereo not drawn) [Example 80, (6-Isopropyl-8-phenyl-5,6,7,8-tetrahydro-pyrido[4,3-#d!]pyrimidin-2-yl)-[3-methoxy-4-(4-methyl-imidazol-1-yl)-phenyl]-amine], the figure is 450 nM; as for `COc1cc(Nc2nc3c(s2)CN(Cc2ccccc2)CC3c2ccccc2Cl)ccc1-n1cnc(C)c1` (stereo not drawn) [Example 23], 70 nM; as for `c1ccc(C2CCCc3sc(Nc4ccc(-c5ccncc5)cc4)nc32)cc1` (stereo not drawn) [Example 94, (4-Phenyl-4,5,6,7-tetrahydro-benzothiazol-2-yl)-(4-pyridin-4-yl-phenyl)-amine], 320 nM.
Take `COc1cc(Nc2nc3c(s2)CN(Cc2ccccc2)CC3c2ccc(Cl)c(F)c2)ccc1-n1cnc(C)c1` (stereo not drawn) [Example 24, [5-Benzyl-7-(4-chloro-3-fluorophenyl)-4,5,6,7-tetrahydro-thiazolo[5,4-c]pyridin-2-yl]-[3-methoxy-4-(4-methyl-imidazol-1-yl)-phenyl]-amine]: the concentration giving a half-maximal response (EC50) amounted to 70 nM.
Take `COc1cc(Nc2nc3c(s2)CCCC3c2cc(C(F)(F)F)cc(C(F)(F)F)c2)ccc1-n1cnc(C)c1` (stereo not drawn) [Example 29, [4-(3,5-Trifluoromethyl-phenyl)-4,5,6,7-tetrahydro-benzothiazol-2-yl]-[3-methoxy-4-(4-methyl-imidazol-1-yl)-phenyl]-amine]: the EC50 is 100 nM.
As for `COc1cc(Nc2nc3c(s2)CCCC3c2ccccc2)ccc1-c1sc(C)nc1C` (stereo not drawn) [Example 93, [4-(2,4-Dimethyl-thiazol-5-yl)-3-methoxy-phenyl]-(4-phenyl-4,5,6,7-tetrahydro-benzothiazol-2-yl)-amine], the figure is 212 nM; as for `CCOC1CCCc2cnc(Nc3ccc(-n4cnc(C)c4)c(OC)c3)nc21` (stereo not drawn) [Example 83, (8-Ethoxy-5,6,7,8-tetrahydro-quinazolin-2-yl)-[3-methoxy-4-(4-methyl-imidazol-1-yl)-phenyl]-amine], 450 nM; as for `COc1cc(Nc2ncc3c(n2)C(c2ccccc2)CN(C(C)=O)C3)ccc1-n1cnc(C)c1` (stereo not drawn) [Example 42, 1-{2-[3-Methoxy-4-(4-methyl-imidazol-1-yl)-phenylamino]-8-phenyl-7,8-dihydro-5H-pyrido[4,3-d]pyrimidin-6-yl}-ethanone], 500 nM.
`COc1cc(Nc2ncc3c(n2)C(c2ccccc2)CNC3)ccc1-n1cnc(C)c1` (stereo not drawn) [Example 41, [3-Methoxy-4-(4-methyl-imidazol-1-yl)-phenyl]-(8-phenyl-5,6,7,8-tetrahydro-pyrido[4,3-d]pyrimidin-2-yl)-amine hydrochloride]: the EC50 is 340 nM.
As for `Cc1ncc(-c2ccc(Nc3nc4c(s3)CCCC4c3ccccc3)cc2)o1` (stereo not drawn) [Example 68, [4-(2-Methyl-oxazol-5-yl)-phenyl]-(4-phenyl-4,5,6,7-tetrahydro-benzothiazol-2-yl)-amine], the figure is 130 nM.
For the compound `COc1cc(Nc2nc3c(s2)CCCC3c2cc(F)cc(F)c2)ccc1-n1cnc(C)c1` (stereo not drawn) [Example 28, [4-(3,5-Difluoro-phenyl)-4,5,6,7-tetrahydro-benzothiazol-2-yl]-[3-methoxy-4-(4-methyl-imidazol-1-yl)-phenyl]-amine], the 50% effective concentration (EC50) turned out to be 120 nM.
As for `COc1cc(Nc2nc3c(s2)CCCC3c2ccc(OC(F)(F)F)cc2)ccc1-n1cnc(C)c1` (stereo not drawn) [Example 10, [3-Methoxy-4-(4-methyl-imidazol-1-yl)-phenyl]-[4-(4-trifluoromethoxy-phenyl)-4,5,6,7-tetrahydro-benzothiazol-2-yl]-amine], the figure is 100 nM; as for `Cc1cn(-c2ccc(Nc3ncc4c(n3)C(c3ccccc3)CCC4)cc2F)cn1` (stereo not drawn) [Example 38, [3-Fluoro-4-(4-methyl-imidazol-1-yl)-phenyl]-(8-phenyl-5,6,7,8-tetrahydro-quinazolin-2-yl)-amine], 130 nM; as for `COc1cc(Nc2nc3c(s2)CCCC3c2cc(C)ccc2C)ccc1-n1cnc(C)c1` (stereo not drawn) [Example 13, [4-(2,5-Dimethyl-phenyl)-4,5,6,7-tetrahydro-benzothiazol-2-yl]-[3-methoxy-4-(4-methyl-imidazol-1-yl)-phenyl]-amine], 120 nM.
As for `Cc1cn(-c2ccc(Nc3nc4c(s3)CCCC4c3ccccc3)cc2F)cn1` (stereo not drawn) [Example 5, [3-Fluoro-4-(4-methyl-imidazol-1-yl)-phenyl]-(4-phenyl-4,5,6,7-tetrahydro-benzothiazol-2-yl)-amine], the figure is 50 nM; as for `COc1cc(Nc2ncc3c(n2)C(c2cc(F)c(F)c(F)c2)CCC3)ccc1-n1cnc(C)c1` (stereo not drawn) [Example 69, [3-Methoxy-4-(4-methyl-imidazol-1-yl)-phenyl]-[8-(3,4,5-trifluoro-phenyl)-5,6,7,8-tetrahydro-quinazolin-2-yl]-amine], 250 nM.
As to `Cc1cn(-c2ccc(Nc3nc4c(s3)CCCC4c3ccccc3)cc2C#N)cn1` (stereo not drawn) [Example 21, 2-(4-Methyl-imidazol-1-yl)-5-(4-phenyl-4,5,6,7-tetrahydro-benzothiazol-2-ylamino)-benzonitrile], the EC50 came to 120 nM.
As for `COc1cc(Nc2nc3c(s2)CCCC3(CC#N)c2ccc(Cl)cc2)ccc1-n1cnc(C)c1` (stereo not drawn) [Example 19, {4-(4-Chloro-phenyl)-2-[3-methoxy-4-(4-methyl-imidazol-1-yl)-phenylamino]-4,5,6,7-tetrahydro-benzothiazol-4-yl}-acetonitrile], the figure is 260 nM.
With `Cc1cn(-c2ccc(Nc3nc4c(s3)CCCC4c3ccccc3)cc2O)cn1` (stereo not drawn) [Example 66, 2-(4-Methyl-imidazol-1-yl)-5-(4-phenyl-4,5,6,7-tetrahydro-benzothiazol-2-ylamino)-phenol] the figure was 210 nM.
